# Reference: patent US7632830B2, “Lactam compounds and pharmaceutical use thereof” (Ajinomoto Co., Inc., priority 2000, dated 2009)
# Tested on: adipose cells of rats
# Assay: Evaluation of the sugar-transporting activity (2-[14C(U)]-deoxy-D-glucose incorporation)
# Format: cell-based
# Conditions: 100 μg/ml of each compound; evaluated on the basis of the reinforcing effect of insulin (100 nM); rat adipose cells
# Protocol: After the decapitation and venesection of 6 male Wistar rats (body weight: 150 to 200 g), an incision was made in the abdomen of each rat to extract 6 g in total of epididymal adipose tissues. The tissues were finely cut into 2 mm×2 mm pieces in 6 ml of KRH (Krebs-Ringer Hepes, composition: 130 mM of sodium chloride, 4.7 mM of potassium chloride, 1.2 mM of potassium dihydrogenphosphate, 1.2 mM of magnesium sulfate, 1 mM of calcium chloride and 25 mM of Hepes, pH=7.6) containing 5% of BSA (bovine serum albumin). 24 mg of collagenase (type I) was added thereto and the digestion treatment was conducted for about 40 minutes to obtain about 6 ml of isolated adipose cells. The collagenase was removed by the buffer exchange. 2% BSA/KRH solution was added to the residue for the re-suspension to obtain 45 ml of an adipose cell suspension.
# The sugar-transporting activity of the compounds of the present invention was evaluated with reference to a method described in a literature [Annual Review of Biochemistry, Vol. 55, p. 1059 (1986)]. In the test, 200 μl of the adipose cell suspension was poured in each polystyrene test tube, 100 μl of the solution of the test substance (by dilution of 10 mg/ml substance dimethyl sulfoxide solution with KRH) was added thereto, and the obtained mixture was shaken and then cultured at 37° C. for 30 minutes.
# The sugar-transporting activity was evaluated by measuring the quantity of 2-[^14C(U)]-deoxy-D-glucose incorporated per a unit time. Namely, 2-[^14C(U)]-deoxy-D-glucose was added to the adipose cell suspension after the pre-culture (the final concentration: 0.5 μCi/sample). 5 minutes after, cytochalasin B (final concentration: 10 μM) was added to the mixture to terminate the sugar transportation. After forming a dinonyl phthalate layer, the obtained mixture was centrifuged to separate the adipose cells from the buffer. The quantity of 2-[^14C(U)]-deoxy-D-glucose contained in the adipose cell layer was determined with a liquid scintillation counter to determine the quantity of the incorporated sugar. In this evaluation system, when insulin (100 nM) having the effect of increasing the sugar transportation was used, the effect was about 7 times as high as that obtained in the insulin-free control group.
# The results of the evaluation of the sugar-transporting activity obtained by using 100 μg/ml of each compound of the present invention are shown in Table 6. The sugar transporting activity in Table 6 was evaluated on the basis of the reinforcing effect of insulin (100 nM). […] The symbols in Table 6 are as follows: • No: Example No., and • A: sugar transporting activity.
# The results of the evaluation of the sugar-transporting activity obtained by using each compound of the present invention are shown in Table 7. The sugar transporting activity in Table 7 was determined in terms of the concentration (EC50: μg/ml) of a test compound, having a reinforcing effect corresponding to 50% on the basis of the reinforcing effect of insulin having a reinforcing effect of 100%.
row,Structure (SMILES),activation at 100 µg/mL
1,O=C1NCC2=C1C(c1ccc(OCc3ccccc3)cc1)Nc1ccccc1N2 (stereo not drawn) [Example 1],40 to 70%
2,O=C1NCC2=C1C(c1ccc(Cl)cc1)Nc1ccccc1N2 (stereo not drawn) [Example 2],20 to 40%
3,O=C1NCC2=C1C(c1ccc(I)cc1)Nc1ccccc1N2 (stereo not drawn) [Example 3],20 to 40%
4,CC(C)(C)c1ccc(C2Nc3ccccc3NC3=C2C(=O)NC3)cc1 (stereo not drawn) [Example 5],20 to 40%
5,O=C1NCC2=C1C(c1ccc(C#Cc3ccccc3)cc1)Nc1ccccc1N2 (stereo not drawn) [Example 6],40 to 70%
6,O=C1NCC2=C1C(c1ccc(-c3ccccc3)cc1)Nc1ccccc1N2 (stereo not drawn) [Example 7],40 to 70%
7,O=C1NCC2=C1C(c1ccc(-c3ccc([N+](=O)[O-])cc3)cc1)Nc1ccccc1N2 (stereo not drawn) [Example 8],≥ 70%
8,O=C1NCC2=C1C(c1ccc3c(c1)Cc1ccccc1-3)Nc1ccccc1N2 (stereo not drawn) [Example 9],40 to 70%
9,CCCCOc1ccc(C2Nc3ccccc3NC3=C2C(=O)NC3)cc1 (stereo not drawn) [Example 10],20 to 40%
10,CCCCCCCCCCCCOc1ccc(C2Nc3ccccc3NC3=C2C(=O)NC3)cc1 (stereo not drawn) [Example 11],40 to 70%
11,O=C1NCC2=C1C(c1ccc(OC3CCCCCC3)cc1)Nc1ccccc1N2 (stereo not drawn) [Example 12],20 to 40%
12,O=C1NCC2=C1C(c1ccc(OC3C4CC5CC(C4)CC3C5)cc1)Nc1ccccc1N2 (stereo not drawn) [Example 13],40 to 70%
13,O=C1NCC2=C1C(c1ccc(OCC34CC5CC(CC(C5)C3)C4)cc1)Nc1ccccc1N2 (stereo not drawn) [Example 14],≥ 70%
14,O=C1NCC2=C1C(c1ccc(OCCC34CC5CC(CC(C5)C3)C4)cc1)Nc1ccccc1N2 (stereo not drawn) [Example 15],40 to 70%
15,O=C1NCC2=C1C(c1ccc(OCCC3CCCCC3)cc1)Nc1ccccc1N2 (stereo not drawn) [Example 16],40 to 70%
16,O=C1NCC2=C1C(c1ccc(-n3cccn3)cc1)Nc1ccccc1N2 (stereo not drawn) [Example 17],20 to 40%
17,O=C1NCC2=C1C(c1ccc(Cl)cc1Cl)Nc1ccccc1N2 (stereo not drawn) [Example 20],20 to 40%
18,CCCCOc1ccc(C2Nc3ccccc3NC3=C2C(=O)NC3)c(OC)c1 (stereo not drawn) [Example 21],40 to 70%

row,Structure (SMILES),activation at 100 µg/mL
1,CCCCOc1ccc(C2Nc3ccccc3NC3=C2C(=O)NC3)c(OCCCC)c1 (stereo not drawn) [Example 22],≥ 70%
2,CCCCOc1ccc(C2Nc3ccccc3NC3=C2C(=O)NC3)c(OCC)c1 (stereo not drawn) [Example 23],≥ 70%
3,CCCCOc1ccc(C2Nc3ccccc3NC3=C2C(=O)NC3)c(OCCC)c1 (stereo not drawn) [Example 24],≥ 70%
4,CCCOc1cc(OCC)ccc1C1Nc2ccccc2NC2=C1C(=O)NC2 (stereo not drawn) [Example 25],40 to 70%
5,CCCOc1ccc(C2Nc3ccccc3NC3=C2C(=O)NC3)c(OCC)c1 (stereo not drawn) [Example 26],40 to 70%
6,CCCCCCOc1ccc(C2Nc3ccccc3NC3=C2C(=O)NC3)c(OC)c1 (stereo not drawn) [Example 27],40 to 70%
7,COc1cc(OCc2ccccc2)ccc1C1Nc2ccccc2NC2=C1C(=O)NC2 (stereo not drawn) [Example 28],40 to 70%
8,CCCCCCOc1ccc(C2Nc3ccccc3NC3=C2C(=O)NC3)c(O)c1 (stereo not drawn) [Example 29],20 to 40%
9,CC(C)(C)c1ccc(C2Nc3ccccc3NC3=C2C(=O)NC3)c(Cl)c1 (stereo not drawn) [Example 30],20 to 40%
10,CC(C)(C)CC(C)(C)c1ccc(C2Nc3ccccc3NC3=C2C(=O)NC3)c(Cl)c1 (stereo not drawn) [Example 31],≥ 70%
11,O=C1NCC2=C1C(c1cnc(-c3ccccc3)nc1)Nc1ccccc1N2 (stereo not drawn) [Example 34],20 to 40%
12,O=C1NCC2=C1[C@@H](c1ccc(Br)cc1)N[C@@H]1CCCC[C@H]1N2 [Example 37],40 to 70%
13,O=C1NCC2=C1[C@@H](c1ccc(OCc3ccccc3)cc1O)N[C@@H]1CCCC[C@H]1N2 [Example 38],≥ 70%
14,COc1ccccc1[C@H]1N[C@@H]2CCCC[C@H]2NC2=C1C(=O)NC2 [Example 39],≥ 70%
15,CCCCOc1ccc([C@H]2N[C@@H]3CCCC[C@H]3NC3=C2C(=O)NC3)c(OCCCC)c1 [Example 40],≥ 70%
16,O=C1NCC2=C1[C@@H](c1ccc(Cl)cc1)N[C@@H]1CCCC[C@H]1N2 [Example 41],≥ 70%
17,CC(=O)N1c2ccccc2NC2=C(C(=O)NC2)C1c1ccc(Br)cc1 (stereo not drawn) [Example 43],40 to 70%
18,CN1C2=C(C(=O)NC2)C(c2ccc(Br)cc2)Nc2ccccc21 (stereo not drawn) [Example 44],20 to 40%

# Same assay, conditions: concentration having a reinforcing effect corresponding to 50% of the reinforcing effect of insulin (100%); rat adipose cells
row,A: sugar transporting activity (EC50),Structure (SMILES)
1,1.3 µg/mL,COc1ccccc1[C@@H]1C2=C(CNC2=O)N[C@@H]2CCCC[C@H]2N1C(C)=O [Example 45]
2,0.77 µg/mL,CCC(=O)N1[C@@H]2CCCC[C@H]2NC2=C(C(=O)NC2)[C@H]1c1ccccc1OC [Example 46]
3,4.6 µg/mL,CCCC(=O)N1[C@@H]2CCCC[C@H]2NC2=C(C(=O)NC2)[C@H]1c1ccccc1OC [Example 47]
4,4.5 µg/mL,COc1ccccc1[C@@H]1C2=C(CNC2=O)N[C@@H]2CCCC[C@H]2N1C(=O)C(F)(F)F [Example 48]
5,0.47 µg/mL,COc1ccccc1[C@@H]1C2=C(CNC2=O)N[C@@H]2CCCC[C@H]2N1C(=O)CC(F)(F)F [Example 49]
6,9.5 µg/mL,COc1ccccc1[C@@H]1C2=C(CNC2=O)N[C@@H]2CCCC[C@H]2N1C(=O)C(F)(F)C(F)(F)F [Example 50]
7,2 µg/mL,COc1ccccc1[C@@H]1C2=C(CNC2=O)N[C@@H]2CCCC[C@H]2N1C(=O)CO [Example 51]
8,5.9 µg/mL,COc1ccccc1[C@@H]1C2=C(CNC2=O)N[C@@H]2CCCC[C@H]2N1C(=O)COC(C)=O [Example 52]
9,2 µg/mL,COCC(=O)N1[C@@H]2CCCC[C@H]2NC2=C(C(=O)NC2)[C@H]1c1ccccc1OC [Example 53]
10,2.2 µg/mL,CCOCC(=O)N1[C@@H]2CCCC[C@H]2NC2=C(C(=O)NC2)[C@H]1c1ccccc1OC [Example 54]
11,4.6 µg/mL,COc1ccccc1[C@@H]1C2=C(CNC2=O)N[C@@H]2CCCC[C@H]2N1C(=O)COc1ccccc1 [Example 55]
12,5 µg/mL,COc1ccccc1[C@@H]1C2=C(CNC2=O)N[C@@H]2CCCC[C@H]2N1C(=O)Cc1ccccc1 [Example 56]
13,1.1 µg/mL,CC=CC(=O)N1C(c2ccccc2OC)C2=C(CNC2=O)NC2CCCCC21 (stereo not drawn) [Example 59]
14,4.8 µg/mL,COC(=O)CCC(=O)N1[C@@H]2CCCC[C@H]2NC2=C(C(=O)NC2)[C@H]1c1ccccc1OC [Example 60]
15,4.8 µg/mL,COc1ccccc1[C@@H]1C2=C(CNC2=O)N[C@@H]2CCCC[C@H]2N1C(=O)CCCO [Example 62]
16,8 µg/mL,COc1ccccc1[C@@H]1C2=C(CNC2=O)N[C@@H]2CCCC[C@H]2N1C(=O)CCNC(=O)OCc1ccccc1 [Example 65]
17,8 µg/mL,COc1ccccc1[C@@H]1C2=C(CNC2=O)N[C@@H]2CCCC[C@H]2N1C(=O)CCN [Example 66]
18,3.4 µg/mL,COCCC(=O)N1[C@@H]2CCCC[C@H]2NC2=C(C(=O)NC2)[C@H]1c1ccccc1OC [Example 67]
19,0.9 µg/mL,COc1ccccc1[C@@H]1C2=C(CNC2=O)N[C@@H]2CCCC[C@H]2N1C(=O)CCc1ccccc1 [Example 68]
20,4 µg/mL,COc1ccccc1CCC(=O)N1[C@@H]2CCCC[C@H]2NC2=C(C(=O)NC2)[C@H]1c1ccccc1OC [Example 69]
21,4.2 µg/mL,COc1ccccc1[C@@H]1C2=C(CNC2=O)N[C@@H]2CCCC[C@H]2N1C(=O)CCc1ccc(F)c(F)c1 [Example 70]
22,2.6 µg/mL,COc1ccccc1[C@@H]1C2=C(CNC2=O)N[C@@H]2CCCC[C@H]2N1C(=O)CCSC [Example 71]
23,5.5 µg/mL,COc1ccccc1[C@@H]1C2=C(CNC2=O)N[C@@H]2CCCC[C@H]2N1C(=O)CC(C)=O [Example 72]
24,10 µg/mL,COc1ccccc1[C@@H]1C2=C(CNC2=O)N[C@@H]2CCCC[C@H]2N1C(=O)c1ccccn1 [Example 76]
